Measured values reported in patent US8273724B2, “Melanoma antigens and their use in diagnostic and therapeutic methods” (The United States of America, as represented by the …, priority 1994, dated 2012).
Where a SMILES comes first, the peptide text is derived from it.

Legend:
[1] = system: 624mel melanoma cell line; test: Induction of peptide specific CTL from PBL, 51Cr release against melanoma cells (Example 5); assay type: cell-based, human; details: for % specific lysis by PBL stimulated with the peptide: target 624mel, E:T = 3D40:1, after 4 stimulations (Table 18)
Method: (§1) Induction of peptide specific CTL PBMC were separated from peripheral blood of HLA-A2+ melanoma patients and normal donors by centrifugation on Ficoll-Hypaque gradients and used as fresh or cryopreserved samples. […] Two days later, 12 IU/ml interleukin 2 (IL-2) (Chiron Co., Emeryville, Calif.) were added to the cultures. Lymphocytes were then restimulated weekly as follows: responder cells were harvested, washed once and replated in 24-well plates at a concentration of 2.5×10^5 cells/ml in CM. Autologous PBMC were thawed, washed twice in PBS, resuspended at 5-8×10^6 cells/ml in CM and pulsed with 1 ug/ml peptide in 15-ml conical tubes (5 ml/tube) for 3 hours at 37° C. These PBMC (stimulators) were then irradiated at 3000 rads, washed once in PBS and added to the responder cells at responder:stimulator ratios ranging between 1:3 and 1:10. The next day, 12 IU/ml IL-2 were added to the cultures. The activity of these CTL was tested by cytotoxicity assays after at least 2 rounds (14 days) of peptide stimulation. To generate CTL from TIL cultures, the dissociated tumor suspension were cultured for 1-2 days in 10% FCS RPMI-1640 medium to allow tumor cell adherence. The lymphocytes, recovered from the non-adherent fraction, were used for the induction of peptide specific CTL as described above.
(§2) Assessment of antigen recognition by CTL. ^51Cr release cytotoxic assays were performed to detect the recognition of peptide and melanoma cells by CTL. To analyze peptide recognition, T2 cell lines were preincubated for 2 h at 37° C. with 1 ug/ml peptide, washed and used as target cells in a ^51Cr release cytotoxic assay. The melanoma lines 624mel was established in our laboratory (See Example 1).

[2] = system: T2 cells; test: Induction of peptide specific CTL from PBL, 51Cr release against T2 cells with or without peptide (Example 5); assay type: cell-based, human; details: E:T = 3D40:1
Method: as §1, §2

[3] = system: T2 cell lines preincubated with peptide; test: Recognition of modified peptides by natural epitope (M9-2, G9-154, G9-209, G9-280) reactive T-cells, 51Cr release on peptide-pulsed T2 cells (Example 5); assay type: cell-based, human
Method: as §2
In order to make more immunogenic peptides for induction of anti-melanoma T-cells than natural melanoma epitopes, a variety of peptides in which at least 1 amino acid was changed based on consensus motifs in peptides binding to a specific MHC Class I allele Falk, et al. (1991) Nature 351:290; Kubo et al. (1994) J. Immunol 152:3913; Parker, K. et al. (1992) Journal of Immunology 149:3580; Ruppert, J. et al. (1993) Cell 74:929-937) (Tables 14, 15, 16, and 17). […] By changing amino acid at the 1st, 2nd, 3rd or 9th positions which are important for HLA-A2 binding to the peptide, but less important for recognition by T-cell receptors, artificial peptides which can bind to HLA-A2.1 with higher affinity and still be recognized by natural epitope specific T-cells may be generated.

[4] = molecular target: HLA-A2.1 (Homo sapiens, UniProt P04439, D140Y/D185E/D98H/E176V/E277Q/G131W/G231S/I119V/I121R/I166T/I218V/L300P/L318F/N151K/N90K/P208A/P217A/Q86G/Q94H/R138H/R169H/T345S); test: HLA-A2.1 binding assay of modified peptides, inhibition of radiolabeled Hbc 18-27 (Example 5)
[5] = system: HLA-A2.1+ T2 cell line; test: 51Cr release cytotoxicity assay: TIL lysis of T2 cells preincubated with synthetic MART-1 peptides (Example 2); assay type: cell-based, human
[6] = target T2 + G9-154-2I, after 4 stimulations
[7] = target T2 + G9-154, after 4 stimulations
[8] = target T2, after 4 stimulations (Table 18)

## CC[C@H](C)[C@H](NC(=O)[C@@H](N)CCCCN)C(=O)N[C@@H](Cc1c[nH]c2ccccc12)C(=O)NCC(=O)N[C@@H](CCC(N)=O)C(=O)N[C@@H](Cc1ccc(O)cc1)C(=O)N[C@@H](Cc1c[nH]c2ccccc12)C(=O)N[C@@H](CCC(N)=O)C(=O)N[C@H](C(=O)O)C(C)C [G9-154-2I] (H-KIWGQYWQV-OH; N-terminus and C-terminus assumed)
[1]; PBL stimulated with autologous PBMC pulsed with peptide
  recognition and lysis of original epitopes and melanoma tumor cells (624 mel) by PBL stimulated with the peptide, compared with natural epitopes: better
[1]
  % specific lysis by PBL stimulated with the peptide: 23%
[2]; [6]
  % specific lysis by PBL stimulated with the peptide: 38%
[2]; [7]
  % specific lysis by PBL stimulated with the peptide: 37%
[2]; [8]
  % specific lysis by PBL stimulated with the peptide: 1%
[3]
  Recognition by G9-154 reactive T-cell: + (+, recognized)
[4]; modified gp100 G9-154 peptides, read-out: Binding affinity to HLA-A2.1
  IC50: 3 nM

## CC(C)[C@H](NC(=O)[C@H](CO)NC(=O)[C@H](Cc1ccccc1)NC(=O)[C@@H]1CCCN1C(=O)[C@@H](NC(=O)[C@H](CCC(N)=O)NC(=O)[C@H](CC(=O)O)NC(=O)[C@@H](NC(=O)[C@@H](N)Cc1ccccc1)[C@@H](C)O)C(C)C)C(=O)O [G9-209-1F]
[3]
  Recognition by G9-209 reactive T-cell: + (+, recognized)
  recognition by the original melanoma reactive T-cells: recognized
[4]
  binding affinity to HLA-A2.1 compared with the natural epitope: higher binding affinity

## CC(C)C[C@H](NC(=O)[C@@H](N)Cc1c[nH]c2ccccc12)C(=O)N[C@@H](CC(=O)O)C(=O)N[C@@H](CCC(N)=O)C(=O)N[C@H](C(=O)N1CCC[C@H]1C(=O)N[C@@H](Cc1ccccc1)C(=O)N[C@@H](CO)C(=O)N[C@H](C(=O)O)C(C)C)C(C)C [G9-209-1W2L]
[3]
  Recognition by G9-209 reactive T-cell: + (+, recognized)
  recognition by the original melanoma reactive T-cells: recognized
[4]
  binding affinity to HLA-A2.1 compared with the natural epitope: higher binding affinity

## CC(C)C[C@H](NC(=O)[C@@H](N)Cc1ccc(O)cc1)C(=O)N[C@@H](CC(=O)O)C(=O)N[C@@H](CCC(N)=O)C(=O)N[C@H](C(=O)N1CCC[C@H]1C(=O)N[C@@H](Cc1ccccc1)C(=O)N[C@@H](CO)C(=O)N[C@H](C(=O)O)C(C)C)C(C)C [G9-209-1Y2L]
[3]
  Recognition by G9-209 reactive T-cell: + (+, recognized)
  recognition by the original melanoma reactive T-cells: recognized
[4]
  binding affinity to HLA-A2.1 compared with the natural epitope: higher binding affinity

## CC(C)[C@H](NC(=O)[C@H](CO)NC(=O)[C@H](Cc1ccccc1)NC(=O)[C@@H]1CCCN1C(=O)[C@@H](NC(=O)[C@H](CCC(N)=O)NC(=O)[C@H](CC(=O)O)NC(=O)[C@@H](NC(=O)[C@@H](N)Cc1ccc(O)cc1)[C@@H](C)O)C(C)C)C(=O)O [G9-209-1Y]
[3]
  Recognition by G9-209 reactive T-cell: + (+, recognized)
  recognition by the original melanoma reactive T-cells: recognized
[4]
  binding affinity to HLA-A2.1 compared with the natural epitope: higher binding affinity

## CC[C@H](C)[C@H](N)C(=O)N[C@H](C(=O)N[C@@H](CC(=O)O)C(=O)N[C@@H](CCC(N)=O)C(=O)N[C@H](C(=O)N1CCC[C@H]1C(=O)N[C@@H](Cc1ccccc1)C(=O)N[C@@H](CO)C(=O)N[C@H](C(=O)O)C(C)C)C(C)C)[C@@H](C)CC [G9-209-2I]
[3]
  Recognition by G9-209 reactive T-cell: + (+, recognized)
  recognition by the original melanoma reactive T-cells: recognized
[4]
  binding affinity to HLA-A2.1 compared with the natural epitope: higher binding affinity

## CC[C@H](C)[C@H](N)C(=O)N[C@@H](CC(C)C)C(=O)N[C@@H](CC(=O)O)C(=O)N[C@@H](CCC(N)=O)C(=O)N[C@H](C(=O)N1CCC[C@H]1C(=O)N[C@@H](Cc1ccccc1)C(=O)N[C@@H](CO)C(=O)N[C@H](C(=O)O)C(C)C)C(C)C [G9-209-2L]
[3]
  Recognition by G9-209 reactive T-cell: + (+, recognized)
  recognition by the original melanoma reactive T-cells: recognized
[4]
  binding affinity to HLA-A2.1 compared with the natural epitope: higher binding affinity

## CC[C@H](C)[C@H](N)C(=O)N[C@@H](CCSC)C(=O)N[C@@H](CC(=O)O)C(=O)N[C@@H](CCC(N)=O)C(=O)N[C@H](C(=O)N1CCC[C@H]1C(=O)N[C@@H](Cc1ccccc1)C(=O)N[C@@H](CO)C(=O)N[C@H](C(=O)O)C(C)C)C(C)C [G9-209-2M]
[3]
  Recognition by G9-209 reactive T-cell: + (+, recognized)
  recognition by the original melanoma reactive T-cells: recognized
[4]
  binding affinity to HLA-A2.1 compared with the natural epitope: higher binding affinity

## CC(C)[C@H](NC(=O)[C@H](CCC(N)=O)NC(=O)[C@H](Cc1c[nH]c2ccccc12)NC(=O)[C@H](Cc1ccc(O)cc1)NC(=O)[C@H](CCC(N)=O)NC(=O)CNC(=O)[C@H](Cc1c[nH]c2ccccc12)NC(=O)[C@@H](NC(=O)[C@@H](N)CCCCN)[C@@H](C)O)C(=O)O [G9154]
[1]
  % specific lysis by PBL stimulated with the peptide: 5%
[2]; [6]
  % specific lysis by PBL stimulated with the peptide: 8%
[2]; [7]
  % specific lysis by PBL stimulated with the peptide: 14%
[2]; [8]
  % specific lysis by PBL stimulated with the peptide: 11%
[3]
  Recognition by G9-154 reactive T-cell: + (+, recognized)

## CC[C@H](C)[C@H](NC(=O)CNC(=O)[C@H](C)NC(=O)[C@@H](N)Cc1ccccc1)C(=O)NCC(=O)N[C@H](C(=O)N[C@@H](CC(C)C)C(=O)N[C@H](C(=O)N[C@H](C(=O)O)C(C)C)[C@@H](C)O)[C@@H](C)CC [M9-2-1F]
[3]
  Recognition by M9-2 reactive T-cell: + (+, recognized)
  recognition by the original melanoma reactive T-cells: recognized
[4]
  binding affinity to HLA-A2.1 compared with the natural epitope: higher binding affinity

## CC[C@H](C)[C@H](NC(=O)CNC(=O)[C@H](CC(C)C)NC(=O)[C@H](C)N)C(=O)NCC(=O)N[C@H](C(=O)N[C@@H](CC(C)C)C(=O)N[C@H](C(=O)N[C@H](C(=O)O)C(C)C)[C@@H](C)O)[C@@H](C)CC [M9-2-2L]
[3]
  Recognition by M9-2 reactive T-cell: + (+, recognized)
  recognition by the original melanoma reactive T-cells: recognized
[4]
  binding affinity to HLA-A2.1 compared with the natural epitope: higher binding affinity

## CC[C@H](C)[C@H](NC(=O)CNC(=O)[C@@H](NC(=O)[C@H](Cc1ccc(O)cc1)NC(=O)[C@H](C)NC(=O)[C@H](C)N)[C@@H](C)CC)C(=O)N[C@@H](CC(C)C)C(=O)N[C@H](C(=O)N[C@H](C(=O)O)C(C)C)[C@@H](C)O [M9-2-3Y]
[3]
  Recognition by M9-2 reactive T-cell: + (+, recognized)
  recognition by the original melanoma reactive T-cells: recognized
[4]
  binding affinity to HLA-A2.1 compared with the natural epitope: higher binding affinity

## CC[C@H](C)[C@H](NC(=O)CN)C(=O)NCC(=O)N[C@H](C(=O)N[C@@H](CC(C)C)C(=O)N[C@H](C(=O)N[C@H](C(=O)N[C@H](C(=O)N[C@@H](CC(C)C)C(=O)O)[C@@H](C)CC)C(C)C)[C@@H](C)O)[C@@H](C)CC [M9-3] (H-GIGILTVIL-OH)
[5]; T2 + peptide 10 ug/ml, effector TIL 660, E:T 40:1, 4 h
  % specific lysis: 0%
[5]; T2 + peptide 10 ug/ml, effector TIL 1074, E:T 40:1, 4 h
  % specific lysis: 10%
[5]; T2 + peptide 10 ug/ml, effector TIL 1235, E:T 40:1, 4 h
  % specific lysis: 20%
[5]; T2 + peptide 10 ug/ml, effector TIL clone A42, E:T 20:1, 4 h
  % specific lysis: 18%
[5]; purified peptide 1 ug/ml, TIL 501, E:T 40:1
  % specific lysis: 5%
[5]; purified peptide 1 ug/ml, TIL 620, E:T 40:1
  % specific lysis: 25%
[5]; purified peptide 1 ug/ml, TIL 660, E:T 40:1
  % specific lysis: 0%
[5]; purified peptide 1 ug/ml, TIL 1074, E:T 40:1
  % specific lysis: 1%
[5]; purified peptide 1 ug/ml, TIL 1088, E:T 40:1
  % specific lysis: 19%
[5]; purified peptide 1 ug/ml, TIL 1128, E:T 40:1
  % specific lysis: 0%
[5]; purified peptide 1 ug/ml, TIL 1143, E:T 40:1
  % specific lysis: 1%
[5]; purified peptide 1 ug/ml, TIL 1200, E:T 40:1
  % specific lysis: −2%
[5]; purified peptide 1 ug/ml, TIL 1235, E:T 40:1
  % specific lysis: 0%
[5]; purified peptide 1 ug/ml, TIL 1363, E:T 40:1
  % specific lysis: −2%
[5]; purified peptide 1 ug/ml, clone A42, E:T 20:1
  % specific lysis: −4%
[5]; purified peptides, titration (FIG. 2)
  recognition by either A42 or TIL1235: not recognized
